Drawing on US6541495B1, “Carboxylic acid derivatives as inhibitors of hyperproliferation diseases” (Pfizer INC, priority 1999, dated 2003), this text covers IC50 for nine molecules.

Molecules are shown by their SMILES.

The assay addresses T1, VEGF/GAG (glycosaminoglycan) binding (purified VEGF165, [125I]heparin-16-mer) (Homo sapiens, UniProt P15692).
T1 construct: purchased Repligen, Inc
T1 sequence (P15692 27-191 isoform P15692-4): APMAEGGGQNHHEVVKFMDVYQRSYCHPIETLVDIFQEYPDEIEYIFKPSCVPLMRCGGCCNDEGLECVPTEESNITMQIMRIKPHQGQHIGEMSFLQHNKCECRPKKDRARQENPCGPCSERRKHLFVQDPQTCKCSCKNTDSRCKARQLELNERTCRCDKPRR
Nature of the assay: VEGF/GAG (glycosaminoglycan) binding inhibition, [125I]heparin-16-mer filter plate assay. Conditions: activity data for representative compounds of formula I; in vitro VEGF165 / [125I]heparin-16-mer binding, 60 minutes at room temperature. The method, then:
The in vitro activity of the compounds of formula I in inhibiting VEGF/GAG (glycosaminoglycan) binding may be measured using the assay described in U.S. Pat. No. 5,795,860, the subject matter of which is incorporated herein by reference.
Using mixed cellulose ester 96-well filter plates, 150 μL of Dulbeccos PBS (phosphate buffered saline) containing 10% ovalbumin is added. Compound (5.0 μL) is added at a final concentration of 1.8 μM. Compounds are dissolved in 8% DMSO (final DMSO concentration is 0.16%) and tested at concentrations of 32, 10, 3.2, 1.0, 0.32 and 0.10 μM. A mixture of [^125I]heparin-16-mer (4500 cpm per well), purified VEGF165 (20 nM final concentration/well, prepared by Repligen, Inc.) and Dulbeccos PBS with 10% ovalbumin is added to the 96-well plate in a volume of 100 μL. Nonspecific binding is defined using 10 μM heparin-sodium from porcine intestinal mucosa. The assay plate is incubated for 60 minutes at room temperature, filtered using a Millipore filtration apparatus, the plastic bottom plate is removed and the filter plate is allowed to completely dry. The plate bottom is sealed with plastic plate seal and 25 μL of scintillation cocktail is added to each well. The top plate is sealed and is counted for radioactivity on a Microbeta Scintillation Counter. The assay is run in a final volume of 250 μL.
Usually IC50 stands for the midpoint of a concentration-inhibition curve. Low readings indicate greater potency, high ones weaker potency. For `Cc1oc(-c2ccccc2)nc1Cc1cc2cc(CC(OCCCO)C(=O)O)ccc2o1` (stereo not drawn) [2-(3-Hydroxy-propoxy)-3-[2-(5-methyl-2-phenyl-oxazol-4-ylmethyl)-benzofuran-5-yl]-propionic acid], the 50% inhibitory concentration (IC50) was found to be 14 µM.
The molecule `C=CCOC(Cc1ccc2oc(Cc3nc(-c4ccccc4)oc3C)cc2c1)C(=O)O` (stereo not drawn) [2-Allyloxy-3-[2-(5-methyl-2-phenyl-oxazol-4-ylmethyl)-benzofuran-5-yl]-propionic acid] displayed an IC50 of 13 µM.
Under `Cc1oc(-c2ccccc2)nc1Cc1cc2cc(CC(SCc3ccccc3)C(=O)O)ccc2o1` (stereo not drawn) [2-Benzylsulfanyl-3-[2-(5-methyl-2-phenyl-oxazol-4-ylmethyl)-benzofuran-5-yl]-propionic acid] stands 2.6 µM; under `CSC(Cc1ccc2oc(Cc3nc(-c4cccc(C)c4)oc3C)cc2c1)C(=O)O` (stereo not drawn) [2-Methylsulfanyl-3-[2-(5-methyl-2-m-tolyl-oxazol-4-ylmethyl)-benzofuran-5-yl]-propionic acid], 8 µM; under `CCCCCCCCSC(Cc1ccc2oc(Cc3nc(-c4ccccc4)oc3C)cc2c1)C(=O)O` (stereo not drawn) [3-[2-(5-Methyl-2-phenyl-oxazol-4-ylmethyl)-benzofuran-5-yl]-2-octylsulfanyl-propionic acid], 0.8 µM.
Consider `Cc1oc(-c2ccccc2)nc1Cc1cc2cc(CC(Oc3ccccc3)C(=O)O)ccc2o1` (stereo not drawn) [3-[2-(5-Methyl-2-phenyl-oxazol-4-ylmethyl)-benzofuran-5-yl]-2-phenoxy-propionic acid], for which the 50% inhibitory concentration (IC50) was 2 µM.
In turn, `CCCSC(Cc1ccc2oc(Cc3nc(-c4ccccc4)oc3C)cc2c1)C(=O)O` (stereo not drawn) [3-[2-(5-Methyl-2-phenyl-oxazol-4-ylmethyl)-benzofuran-5-yl]-2-propylsulfanyl-propionic acid] registered an IC50 of 1.5 µM.
On to `Cc1oc(-c2ccccc2)nc1Cc1cc2cc(CCC(=O)O)ccc2o1` [3-[2-(5-Methyl-2-phenyl-oxazol-4-ylmethyl)-benzofuran-5-yl]-propionic acid], for which the IC50 was 6.8 µM.
For the molecule `CSC(Cc1ccc(OCCc2nc(-c3ccccc3)oc2C)cc1)C(=O)O` (stereo not drawn) [3-{4-[2-(5-Methyl-2-phenyl-oxazol-4-yl)-ethoxy]-phenyl}-2-methylsulfanyl-propionic acid], the IC50 was 4.5 µM.
